Results as given in patent US8546377B2 (AbbVie Inc., priority 2009, dated 2013).
Like-named read-outs stand apart in the source and are kept apart here.

How the values were obtained:
[1] = molecular target: T1, human serotonin 5-HT2c receptor (Homo sapiens, UniProt P28335); test: Human 5-HT2C receptor radioligand binding assay (agonist site, [125I](±)DOI); details: membranes of transfected CHO cells, 0.2 nM [125I](±)DOI, 15 minutes at 37° C.
T1 construct: expressed in transfected cells; host or cells: CHO cells (membrane homogenate)
T1 sequence (P28335 33-458): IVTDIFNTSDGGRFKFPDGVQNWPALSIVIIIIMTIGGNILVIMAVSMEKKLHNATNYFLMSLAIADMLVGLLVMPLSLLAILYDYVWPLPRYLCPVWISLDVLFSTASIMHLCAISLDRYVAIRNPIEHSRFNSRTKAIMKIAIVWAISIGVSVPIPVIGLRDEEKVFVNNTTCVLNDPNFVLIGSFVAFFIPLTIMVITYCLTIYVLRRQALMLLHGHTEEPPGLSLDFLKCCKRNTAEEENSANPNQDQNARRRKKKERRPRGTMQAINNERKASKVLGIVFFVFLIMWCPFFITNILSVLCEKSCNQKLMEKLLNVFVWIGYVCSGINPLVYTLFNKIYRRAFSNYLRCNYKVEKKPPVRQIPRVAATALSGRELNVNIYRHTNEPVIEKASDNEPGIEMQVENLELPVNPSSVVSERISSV
Procedure: To determine the effectiveness of compounds having a formula (I), these compounds can be evaluated in a radioligand binding assay for the agonist site of the human serotonin 5-HT2c receptor or in vitro models of cellular function.
(i) Human 5-HT2C Receptor Radioligand Binding Assay
Affinity of compounds for the agonist site of the 5-HT2c receptor in transfected CHO cells was determined in a radioligand binding assay essentially as described by Bryant, H. U., et al., Life Sciences (1996) 59(15), 1259-1268.

5HT2B receptors = molecular target: T2, 5HT2B receptors (Homo sapiens, UniProt P41595); test: Human 5-HT2B functional assay in CHO-K1 cells (calcium flux, FLIPR); assay type: cell-based; details: for Emax: CHO-K1, read-out: Emax (%), 5-HT2B Agonist Activity
T2 construct: expressed in transfected cells; host or cells: CHO-K1 cells
T2 sequence (P41595 whole entry): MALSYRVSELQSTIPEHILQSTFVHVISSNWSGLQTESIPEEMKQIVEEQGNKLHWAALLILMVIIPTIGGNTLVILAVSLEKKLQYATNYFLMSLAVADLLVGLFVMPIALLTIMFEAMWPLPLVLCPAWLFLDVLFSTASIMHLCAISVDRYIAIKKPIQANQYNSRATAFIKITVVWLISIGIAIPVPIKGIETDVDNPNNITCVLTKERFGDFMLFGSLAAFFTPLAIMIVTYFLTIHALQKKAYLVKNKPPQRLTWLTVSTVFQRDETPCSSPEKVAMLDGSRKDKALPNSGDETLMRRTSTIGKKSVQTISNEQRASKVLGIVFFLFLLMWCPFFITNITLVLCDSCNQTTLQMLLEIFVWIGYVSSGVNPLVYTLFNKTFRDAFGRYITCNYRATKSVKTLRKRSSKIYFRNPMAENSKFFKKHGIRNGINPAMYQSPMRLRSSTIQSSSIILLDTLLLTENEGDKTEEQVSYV
Method in brief: (§1)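 EC50 came from a 4-parameter logistic fit, with Emax expressed relative to serotonin, of intracellular Ca2+ rises read on FLIPR at 480/530 nm, 25° C, over 3 min. Compounds ran from 10 μM in six 1:10 steps (0.2% DMSO) on serum-starved CHO-K1 transfectants pre-loaded 60 min with Ca4 dye and probenecid.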

5HT2C receptors [2] = molecular target: T3, 5HT2C receptors (Homo sapiens, UniProt P28335); test: Human 5-HT2C functional assay in 1321N1 cells (intracellular calcium, FLIPR); assay type: cell-based; set-up: expressed in transfected cells; host or cells: 1321N1 cells; details: for EC50: 1321N1 cells stably transfected, maximum calcium response, read-out: EC50 (μM), 5-HT2c Agonist Activity; for Emax: 1321N1 cells, percentage relative to the effect of serotonin, read-out: Emax (%), 5-HT2c Agonist Activity
T3 sequence (P28335 33-458): T1 sequence (P28335 33-458)
Procedure: (ii) Human 5-HT2C Functional Assay in 1321N1 Cells
Functional activity was determined by testing the effect of the compounds on intracellular calcium levels in 1321N1 cells stably transfected with the human 5-HT2C receptor. Cells were seeded into 96-well plates at 50,000 cells/well and grown overnight in tissue culture medium (DMEM with Glutamax I (Invitrogen), containing 10% dFCS, 50 μg/mL Gentamicin, 400 μg/mL Geneticin) at 37° C. and 7% CO2. Growth medium was replaced by medium without dFCS for overnight incubation. Cells were loaded with a fluorescent calcium-sensitive dye in the presence of 1% probenicid according to the manufacturer's protocol (Fluo4 AM, Molecular Devices). Serial compound dilutions (final concentrations 10^−10 to 10^−5 M) were added to the cells either alone or in the presence of serotonin (10^−9 M) and the maximum calcium response was determined using a FLIPR instrument (Molecular Devices). Concentration-response curves were fitted using a four-parameter logistic equation (GraphPad Prism). The concentration at which the compound exerts half its maximal effect is named the ‘effective concentration 50’ or ‘EC50’ and is listed in Table 2.
Emax is the maximum functional response or efficacy expressed as a percentage relative to the effect of serotonin.

5HT2C receptors [3] = molecular target: T3, 5HT2C receptors; test: Human 5-HT2C functional assay in CHO-K1 cells (calcium flux, FLIPR); assay type: cell-based; set-up: expressed in transfected cells; host or cells: CHO-K1 cells; details: for Emax: percentage relative to the effect of serotonin
Method in brief: as §1

[4] = CHO-K1, read-out: Emax (%), 5-HT2c Agonist Activity, CHO-K1 cells

EC50 (5HT2B receptors; CHO-K1 cells over-expressing 5HT2B, calcium flux, read-out: EC50 (μM), 5-HT2B Agonist Activity) [µM] | EC50 (5HT2C receptors [3]; CHO-K1 cells over-expressing 5HT2C, calcium flux, read-out: EC50 (μM), 5-HT2c Agonist Activity) [µM] | Emax (5HT2C receptors [3]; CHO-K1 cells, read-out: Emax (%), 5-HT2c Agonist Activity) [%] | Compound | Ki [1] [µM] | EC50 (5HT2B receptors) [µM] | Emax (5HT2B receptors) [%] | EC50 (5HT2C receptors [2]) [µM] | Emax (5HT2C receptors [2]) [%] | EC50 (5HT2C receptors [3]) [µM] | Emax (5HT2C receptors [3]; [4]) [%]
 |  |  | O=C1C[C@H]2CNCCN2c2cc(Cl)c(Cl)cc2N1 [Example 37, (4aS)-9,10-dichloro-1,2,3,4,4a,5-hexahydropyrazino[1,2-a][1,5]benzodiazepin-6(7H)-one] | 0.014 | 0.003 | 100 | 0.0032 | 99.5 | 0.0008 | 100
 |  |  | Brc1ccc2c(c1)NCCC1CNCCN21 (stereo not shown) [Example 19, 9-bromo-1,2,3,4,4a,5,6,7-octahydropyrazino[1,2-a][1,5]benzodiazepine] | 0.14 | > 10 |  | 0.0283 | 85.5 | 0.02 | > 120
> 10 | 0.03 | > 120 | CCOc1ccc2c(c1)N1CCNCC1CC(=O)N2 (stereo not shown) [Example 44, 10-ethoxy-1,2,3,4,4a,5-hexahydropyrazino[1,2-a][1,5]benzodiazepin-6(7H)-one] | 0.15 |  |  | 0.0445 | 90 |  | 
 |  |  | COc1ccc2c(c1)N1CCNC[C@@H]1CC(=O)N2 [Example 43, (4aS)-10-methoxy-1,2,3,4,4a,5-hexahydropyrazino[1,2-a][1,5]benzodiazepin-6(7H)-one] | 0.066 | 0.06 | 80 | 0.0138 | 86 | 0.01 | > 120
 |  |  | O=C1CC2CNCCN2c2c(F)cccc2N1 (stereo not shown) [Example 33, 11-fluoro-1,2,3,4,4a,5-hexahydropyrazino[1,2-a][1,5]benzodiazepin-6(7H)-one] | 0.042 | > 10 |  | 0.0142 | 98 | 0.01 | > 120
 |  |  | Cc1cccc2c1NC(=O)CC1CNCCN21 (stereo not shown) [Example 40, 8-methyl-1,2,3,4,4a,5-hexahydropyrazino[1,2-a][1,5]benzodiazepin-6(7H)-one] | 0.035 | > 10 |  | 0.0068 | 89.5 | 0.005 | 110
 |  |  | O=C1NCC2CNCCN2c2ccccc21 (stereo not shown) [Example 46, 2,3,4,4a,5,6-hexahydropyrazino[1,2-a][1,4]benzodiazepin-7(1H)-one] | 0.033 | 0.3 | 80 | 0.0059 | 93 | 0.008 | > 120
 |  |  | Cc1ccc2c(c1)N1CCNC[C@@H]1CC(=O)N2 [Example 36, (4aS)-10-methyl-1,2,3,4,4a,5-hexahydropyrazino[1,2-a][1,5]benzodiazepin-6(7H)-one] | 0.0091 | 0.008 | 100 | 0.0015 | 104 | 0.002 | > 120
